The supplement of paper PMC11424490

How the values were obtained:
NCI-H2122 [1] = test: fitted bottom plateau of viability curve, % of DMSO control; higher = less maximal inhibition; extreme values may be limits of the assay
Procedure: (§1)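 CellTiter-Glo proliferation assay in KRAS G12C mutant NCI-H2122 (72 h), SW837 (144 h) and NCI-H358 cells in 384-well plates. Monotherapy dose response was fitted with a four-parameter curve after normalisation to DMSO controls (% of control, PoC). IC50 is the relative IC50, averaged over replicates. Bottom is the fitted lower plateau in %PoC; Max.Conc. is the top dose tested.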

SW837 [2] = test: as above
Procedure: as §1

NCI-H2122 [3] = test: relative IC50 of cell viability (CellTiter-Glo); higher = less potent
Procedure: as §1

SW837 [4] = test: as above
Procedure: as §1

NCI-H2122 [5] = test: combination cScore with sotorasib (Bliss gap around IC50) (%PoC); higher = stronger additive effect
Method in brief: (§2)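 The score averages the gap between expected and measured viability under Bliss independence, taken over a field around the IC50 of each single agent or, where an IC50 was not reached, at the highest concentrations. Viability came from CellTiter-Glo luminescence, normalised to vehicle wells as percent of control and fitted with four-parameter curves. NCI-H2122, NCI-H358 and SW837 cells were dosed in concentration matrices 24 h after seeding and grown for 72 h, or 144 h for SW837.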

SW837 [6] = test: as above
Method in brief: as §2

relative IC50 of cell viability (NCI-H2122 [3]) [µM] | relative IC50 of cell viability (SW837 [4]) [µM] | Compound | fitted bottom plateau of viability curve (NCI-H2122 [1]) [%] | fitted bottom plateau of viability curve (SW837 [2]) [%] | combination cScore with sotorasib (NCI-H2122 [5]) | combination cScore with sotorasib (SW837 [6])
8.09 | – | CC1(C)CCC(CN2CCN(c3ccc(C(=O)NS(=O)(=O)c4ccc(NCC5CCOCC5)c([N+](=O)[O-])c4)c(Oc4cnc5[nH]ccc5c4)c3)CC2)=C(c2ccc(Cl)cc2)C1 [ABT-199] (top concentration tested 10000 nM) | 65.6 | 95.3 | – | –
3.12 | – | CO[C@H]1/C=C/C[C@H](C)[C@@H](C)S(=O)(=O)NC(=O)c2ccc3c(c2)N(C[C@@H]2CC[C@H]21)C[C@@]1(CCCc2cc(Cl)ccc21)CO3 [AMG176] (top concentration tested 10000 nM) | 45.9 | 96.3 | – | –
– | 1.9 | CO[C@H]1CC[C@H](n2c([C@@H]3CCCC(=O)N3c3ccc(F)c(F)c3)nc3cc(-c4c(C)noc4C)ccc32)CC1 [CCS1477] (top concentration tested 10000 nM) | 77.8 | 36.9 | – | –
0.126 | – | COc1ncc(-c2nc3c(n2C(C)C)[C@H](c2ccc(Cl)cc2)N(c2cc(Cl)cn(C)c2=O)C3=O)c(OC)n1 [HDM-201] (top concentration tested 9999.9 nM) | 25.1 | 84.1 | – | –
– | 7.02 | O=C(/C=C\n1cnc(-c2cc(C(F)(F)F)cc(C(F)(F)F)c2)n1)NNc1cnccn1 [KPT-330] (top concentration tested 50000 nM) | 91.8 | 20.6 | – | –
6.69 | – | COc1ccccc1-c1cc(Nc2cccc(CS(N)(=O)=O)c2)ncn1 [LDC-067] (top concentration tested 10000 nM) | 47.3 | 87.9 | – | –
0.2 | – | Cc1ccc(NC(=O)c2ccnc(C(F)(F)F)c2)cc1-c1cc(OCCO)nc(N2CCOCC2)c1 [LXH-254] (top concentration tested 1000 nM) | 63.6 | 94.2 | – | –
1.1 | – | Cc1ncc(NC(=O)c2cccc(C(F)(F)F)c2)cc1-c1cnc(OC2CCOCC2)c(N2CCOCC2)c1 [RAF-709] (top concentration tested 10000 nM) | 11.1 | 87.9 | – | –
8.59 | – | COc1cc2c(NC3CCN(C(C)C)CC3)nc(C3CCCCC3)nc2cc1OCCCN1CCCC1 [UNC0638] (top concentration tested 10000 nM) | 46.7 | 88.9 | – | –

Continued, compound first:

Compound | relative IC50 of cell viability (NCI-H2122 [3]) [µM] | relative IC50 of cell viability (SW837 [4]) [µM] | fitted bottom plateau of viability curve (NCI-H2122 [1]) [%] | fitted bottom plateau of viability curve (SW837 [2]) [%] | combination cScore with sotorasib (NCI-H2122 [5]) | combination cScore with sotorasib (SW837 [6])
COc1ccc2nc3ccc(OC)cc3c(SCCCN)c2c1 (top concentration tested 10000 nM) | 9.65 | – | 59 | 84.2 | – | –
C[C@@H](Oc1cc(-c2cnn(C3CCNCC3)c2)cnc1N)c1c(Cl)ccc(F)c1Cl (top concentration tested 10000 nM) | 1.23 | – | 4.25 | 31.9 | – | –
O=[N+]([O-])c1ccc(NCCNc2ncc(-c3ncc[nH]3)c(-c3ccc(Cl)cc3Cl)n2)nc1 (top concentration tested 10000 nM) | 8.95 | – | 43.5 | 91.7 | – | –
COc1cc(OC2CCN(C)CC2)ccc1Nc1ncc2c(n1)n(C1CCCC1)c(=O)n2C [AZ3146] (top concentration tested 10000 nM) | 6.06 | – | 39.4 | 57.4 | – | –
Nc1ncn([C@@H]2O[C@H](CO)[C@@H](O)[C@H]2O)c(=O)n1 [Azacitidine] (top concentration tested 9999.8 nM) | 1.94 | – | 14.4 | 93 | – | –
Nc1ncn([C@H]2C[C@H](O)[C@@H](CO)O2)c(=O)n1 [Decitabine] (top concentration tested 10000 nM) | 1.36 | – | 57.7 | 54 | – | –
O=c1[nH]cc(F)c(=O)[nH]1 [Fluorouracil (5-FU)] (top concentration tested 1000.2 nM) | 0.945 | – | 64.6 | 96.6 | – | –
CC(C)NC[C@@H](C(=O)N1CCN(c2ncnc3c2[C@H](C)C[C@H]3O)CC1)c1ccc(Cl)cc1 [Ipatasertib] (top concentration tested 10000 nM) | 0.642 | – | 57.9 | 85.8 | – | –
N[C@@H](Cc1ccc(N(CCCl)CCCl)cc1)C(=O)O [Melphalan] (top concentration tested 10000 nM) | 2.14 | – | 46.6 | 52.1 | – | –
CCc1cccc(CC)c1NC(=O)c1nn(C)c2c1CCc1cnc(Nc3ccc(C(=O)NC4CCN(C)CC4)cc3OC(F)(F)F)nc1-2 [NMS-P715] (top concentration tested 10000 nM) | 3.96 | – | 48.7 | 58.9 | – | –
O=c1cc(N2CCOCC2)oc2c(-c3cccc4c3sc3ccccc34)cccc12 [NU-7441] (top concentration tested 10000 nM) | 3.43 | – | 42.8 | 70.7 | – | –
Cc1cn(-c2cc(NC(=O)c3ccc(C)c(Nc4nccc(-c5cccnc5)n4)c3)cc(C(F)(F)F)c2)cn1 [Nilotinib] (top concentration tested 10000 nM) | 2.51 | – | 14 | 68.8 | – | –
Nc1nc2[nH]cc(CCc3ccc(C(=O)N[C@@H](CCC(=O)O)C(=O)O)cc3)c2c(=O)[nH]1 [Pemetrexed] (top concentration tested 10000 nM) | 0.0214 | – | 43.3 | 90.7 | – | –
COc1cc(OC)c(/C=C/S(=O)(=O)Cc2ccc(OC)c(NCC(=O)O)c2)c(OC)c1 [Rigosertib] (top concentration tested 1000.1 nM) | 0.123 | – | 5.86 | 58.2 | – | –
CCN(CC)CCNC(=O)c1c(C)[nH]c(/C=C2\C(=O)Nc3ccc(F)cc32)c1C [Sunitinib] (top concentration tested 9999.9 nM) | 4.65 | – | 31.4 | 59.9 | – | –
CC(C)C[C@@H](C(=O)N[C@H](C(=O)OC1CCCC1)c1ccccc1)[C@H](O)C(=O)NO [Tosedostat] (top concentration tested 9999.9 nM) | 0.776 | – | 51.2 | 92.2 | – | –
CS(=O)(=O)c1ccc(-c2cnc(N)c(C(=O)Nc3ccccc3)n2)cc1 [VE-821] (top concentration tested 10000 nM) | 2.14 | – | 34.2 | 82.4 | – | –
O=C(CCCCCCC(=O)Nc1ccccc1)NO [Vorinostat] (top concentration tested 10000 nM) | 2.44 | – | 10.7 | 25 | – | –
O=C(CCCCCCC(=O)Nc1ccccc1)NO [Vorinostat] + C=CC(=O)N1CCN(c2nc(=O)n(-c3c(C)ccnc3C(C)C)c3nc(-c4c(O)cccc4F)c(F)cc23)[C@@H](C)C1 [sotorasib] | – | – | – | – | 8.52 | 14.9
CN[C@H]1CN(c2ccc3c(=O)c(C(=O)O)cn(-c4nccs4)c3n2)C[C@@H]1OC [Vosaroxin] + C=CC(=O)N1CCN(c2nc(=O)n(-c3c(C)ccnc3C(C)C)c3nc(-c4c(O)cccc4F)c(F)cc23)[C@@H](C)C1 [sotorasib] | – | – | – | – | 13.3 | 13.2
COc1cc2nccc(Oc3ccc(NC(=O)C4(C(=O)Nc5ccc(F)cc5)CC4)cc3)c2cc1OC [XL-184] (top concentration tested 9999.9 nM) | 8.09 | – | 35.3 | 55.8 | – | –
COc1cc2nccc(Oc3ccc(NC(=O)C4(C(=O)Nc5ccc(F)cc5)CC4)cc3)c2cc1OC [XL-184] + C=CC(=O)N1CCN(c2nc(=O)n(-c3c(C)ccnc3C(C)C)c3nc(-c4c(O)cccc4F)c(F)cc23)[C@@H](C)C1 [sotorasib] | – | – | – | – | 11.7 | 14
